Test results reported in patent US20080026067A1, “Method for Increasing Specific Surface Area of Slightly Soluble Drug” (priority 2004, published 2008).
Values belong to the molecule of their own block, whether it stands above or below them.

Assays:
Format in all cases: physicochemical
[1] = Specific surface area of the powder, multipoint BET method
Description: A specific surface area of a powder of the compound A obtained by the above-described methods and the following Examples can be measured by known method, for example, multipoint BET method.
A specific surface area of the compound A was adjusted to give the crystalline powders with different specific surface area by the following method. As well, the measurement of specific surface area was performed by multipoint BET method.

[2] = Accelerated test (storage stability: purity by HPLC, degree of moisture by Karl Fisher); conditions: for Degree of moisture (%) / Purity (%): crushing composition
Description: 1 g of the powder of compound A was poured into the two-lay plastic bag and closed firmly with banding band. This was poured into miniature fiber dram and then this was preserved in the stability tester under the condition for 6 months, at 40° C., at 75% relative humidity. And then, the purity (quantitative value) and the degree of moisture (%) of the powder of compound A were measured. The measurement of the degree of moisture was performed by known method: the moisture vaporization method/Karl Fisher electrometrical titration method. The measurement of purity was performed by high performance liquid chromatography (HPLC).
About 0.04 mg/mL N,N-dimethylformamide/acetontirile (3/7) solution of reference material and measurement sample of compound A was prepared. In this case, the concentration of the solutions was precisely found. These solutions was set under the below test condition and the purity of measurement sample was calculated from the obtained area value of the peak.
• The detector: ultraviolet absorptiometer (measurement wavelength: 278 nm), • The column: YMC-Pack ODS-A-302 (inside diameter 4.6 mm, length 15 cm), • The mobile phase: acetonitrile/5 mmol/L sodium acetate buffer (It was prepared to pH 4.5 using acetate.)/2-propanol mixture (5/4/1), • The flow: The retention time of the compound A was prepared to be about 12 minutes (about 1.0 mL/min), • The column temperature: the constant temperature in the vicinity of 40° C. • The injection volume: 20 μL.

[3] = Measurement of tap density; conditions: tapped 3 minutes at 60 times/minute
Description: A tap density of a powder of the compound A is preferably in the range of about 0.1 to about 0.4 g/cm^3, and more preferably in the range of about 0.1 to about 0.3 g/cm^3. A tap density can be measured by known method. It includes, for example, the method that about 3 g sample is precisely weighed, it is put into dried 50 mL graduated cylinder (scale: by 0.1 mL) without consolidation, the graduated cylinder is set on tapping machine for tap density, then it is tapped for 3 minutes at 60 times/minute, final tap density is found, and value that the weight (g) of particulate is divided by final tap density (cm^3) of particulate is assumed tap density (g/cm^3), and method described in the following Examples and so on.
About 3 g of the powder of compound A is precisely weighed, it is put into dried 50 mL graduated cylinder (scale: by 0.1 mL) without consolidation, the graduated cylinder is set on tapping machine for tap density, then it is tapped for 3 minutes at 60 times/minute, final tap density is found. The value that the weight (g) of particulate is divided by final bulk density (cm^3) of particulate is assumed tap density (g/cm^3). As a result, the tap density of the powder of compound A prepared in Adjustment Example 4(3) was 0.28 g/cm^3 (non-crushing composition) and 0.13 g/cm^3 (crushing composition). The tap density of tie powder of compound A prepared in Adjustment Example 4(4) was 0.23 g/cm^3 (non-crushing composition) and 0.16 g/cm^3 (crushing composition).[

[4] = Measurement of bulk density
Description: A bulk density of a powder of the compound A is preferably in the range of about 0.05 to about 0.3 g/cm^3, and more preferably in the range of about 0.05 to about 0.2 g/cm^3. A bulk density can be measured by known method. It includes, for example, the method that about 3 g sample is precisely weighed, it is put into dried 50 mL graduated cylinder (scale: by 0.1 mL) without consolidation, it reads to minimum unit of scale and value that the weight (g) of particulate is divided by the volume (cm^3) of particulate is assumed bulk density (g/cm^3), and method described in the following Examples and so on.
About 3 g of compound A is precisely weighed, it is put into dried 50 mL graduated cylinder (scale: by 0.1 mL) without consolidation, it reads to minimum unit of scale. The value that the weight (g) of particulate is divided by the volume (cm^3) of particulate is assumed bulk density (g/cm^3). As a result, the bulk density of the powder of compound A prepared in Adjustment Example 4(3) was 0.18 g/cm^3 (non-crushing composition) and […] (crushing composition). The bulk density of compound A prepared in Adjustment Example 4(4) was 0.18 g/cm^3 (non-crushing composition) and 0.08 g/cm^3 (crushing composition).

[5] = Dissolution test (Japanese Pharmacopoeia method 2, Paddle method); conditions: pH 6.8 McIlvaine buffer, 2.0% (w/v) sodium lauryl sulfate, 900 mL, 37°C, 50 rpm, 30 mg
Description: In the present invention, the dissolution rate in the dissolution test, according to dissolution test method 2 (Paddle method) of general test in the Japanese Pharmacopoeia, is the value that the method is performed on condition that 50 rounds per minute in pH6.8 McIlvaine buffer solution including 2.0% (w/v) sodium lauryl sulfate. More detail, it includes the method described in the following method or the method pursuant thereof and so on.
The powder of compound A prepared in the above described Preparation Example 4 (specific surface area=12.51 m^2/g) and Preparation Example 6 (specific surface area=5.46 m^2/g) was sieved by 60 mesh sieve (250 μm) respectively and the sieved material was weighed out 30 mg and then poured into the test solution. The dissolution test was performed under the below described condition of the dissolution test. However, the compound A was suspended with about 2 mL test solution and then the compound A poured into the test solution. The eluate 10 mL obtained at each sampling time was filtrated with membrane filter having 0.45 μm pore diameter. The first filtrate 2 mL was removed and the rest of filtrate was as the solution of test material. The compound A prepared in Preparation Example 12 was precisely weighed out about 33.3 mg and it was dissolved by adding methanol to adjust 100 mL. Among this solution, 5 mL was weighed out and it was added by test solution to adjust 50 mL. It was made as the standard solution (0.0333 mg/mL) that […] of the compound A was dissolved. The absorbance of the solution of test material and standard solution in wavelength 278 nm was measured by the measurement of ultraviolet visible absorbance respectively and according to the below formula, the dissolution rate was found.
The Dissolution Test Condition:
• Apparatus: The Japanese Pharmacopoeia, general test, dissolution test method 2 (Paddle method), • Test solution; McIlvaine buffer solution containing of 2.0% (w/v) sodium lauryl sulfate, pH 6.8 • Test solution volume: 900 mL • Temperature: 37±0.5° C. • Rotation speed: 50 rotations per minute • Sampling volume of eluate: 10 mL • Sampling time: 5, 10, 15, 30, 45, 60 and 90 minutes. [formula] [formula] • W: The volume of compound A containing of standard solution (33.3 mg) • t: The number of sampling • C: The volume of compound A poured into the test solution (30 mg) • Ct: The concentration of compound A in the solution of test material at t times sampling • ΣCn: The sum of the concentration of compound A in the solution of test material from n=1 to t−1 • At: The absorbance of the solution of test material • As: The average of absorbance of the […] of repeated measurement at three times • V: The volume of the test solution (900 mL) • v: The sampling volume of the eluate (10 mL)

[6] = crushing composition (jet mill crushed)
[7] = 6 months at 40°C, 75% relative humidity
[8] = over 6 months at 40°C, 75% relative humidity

specific surface area ([1]; powder as obtained): 42.24 m^2/g
SMILES: Cc1ccc(-c2nc(CCOc3cccc4c3CCC=C4CCC(=O)O)c(C)o2)cc1 [Adjustment Example 1, 3-(5-{2-[5-methyl-2-(4-methylphenyl)-1,3-oxazol-4-yl]ethoxy}-3,4-dihydronaphthalen-1-yl)propanoic acid]

specific surface area ([1]; powder as obtained): 20.43 m^2/g
SMILES: Cc1ccc(-c2nc(CCOc3cccc4c3CCC=C4CCC(=O)O)c(C)o2)cc1 [Adjustment Example 2, 3-(5-{2-[5-methyl-2-(4-methylphenyl)-1,3-oxazol-4-yl]ethoxy}-3,4-dihydronaphthalen-1-yl)propanoic acid]

specific surface area [1, 6]: 20.6 m^2/g
specific surface area ([1]; non-crushing composition): 19.6 m^2/g
Degree of moisture (%) ([2]; 0 month): 0.3%
Purity (%) ([2]; 0 month): 95.4%
Degree of moisture (%) [2, 7]: 0.6%
Purity (%) [2, 7]: 94.4%
change (increase) of degree of moisture [2, 8]: 0.3%
decrease of purity [2, 8]: 1.0%
SMILES: Cc1ccc(-c2nc(CCOc3cccc4c3CCC=C4CCC(=O)O)c(C)o2)cc1 [Adjustment Example 3, 3-(5-{2-[5-methyl-2-(4-methylphenyl)-1,3-oxazol-4-yl]ethoxy}-3,4-dihydronaphthalen-1-yl)propanoic acid]

specific surface area ([1]; powder as obtained): 6.7 m^2/g
SMILES: Cc1ccc(-c2nc(CCOc3cccc4c3CCC=C4CCC(=O)O)c(C)o2)cc1 [Adjustment Example 4(1), 3-(5-{2-[5-methyl-2-(4-methylphenyl)-1,3-oxazol-4-yl]ethoxy}-3,4-dihydronaphthalen-1-yl)propanoic acid]

specific surface area ([1]; powder as obtained): 17.8 m^2/g
SMILES: Cc1ccc(-c2nc(CCOc3cccc4c3CCC=C4CCC(=O)O)c(C)o2)cc1 [Adjustment Example 4(2), 3-(5-{2-[5-methyl-2-(4-methylphenyl)-1,3-oxazol-4-yl]ethoxy}-3,4-dihydronaphthalen-1-yl)propanoic acid]

tap density ([3]; crushing composition): 0.13 g/mL
tap density ([3]; non-crushing composition): 0.28 g/mL
specific surface area [1, 6]: 12.7 m^2/g
specific surface area ([1]; non-crushing composition): 11.0 m^2/g
bulk density ([4]; crushing composition): 0.8 g/mL
bulk density ([4]; non-crushing composition): 0.18 g/mL
SMILES: Cc1ccc(-c2nc(CCOc3cccc4c3CCC=C4CCC(=O)O)c(C)o2)cc1 [Adjustment Example 4(3), 3-(5-{2-[5-methyl-2-(4-methylphenyl)-1,3-oxazol-4-yl]ethoxy}-3,4-dihydronaphthalen-1-yl)propanoic acid]

specific surface area ([1]; powder as obtained): 12.51 m^2/g
Dissolution rate (%) ([5]; 0 minutes): 0.00%
Dissolution rate (%) ([5]; 5 minutes): 65.46%
Dissolution rate (%) ([5]; 10 minutes): 76.67%
Dissolution rate (%) ([5]; 15 minutes): 82.17%
Dissolution rate (%) ([5]; 30 minutes): 88.95%
Dissolution rate (%) ([5]; 45 minutes): 92.15%
Dissolution rate (%) ([5]; 60 minutes): 94.10%
Dissolution rate (%) ([5]; 90 minutes): 96.20%
SMILES: Cc1ccc(-c2nc(CCOc3cccc4c3CCC=C4CCC(=O)O)c(C)o2)cc1 [Adjustment Example 4, 3-(5-{2-[5-methyl-2-(4-methylphenyl)-1,3-oxazol-4-yl]ethoxy}-3,4-dihydronaphthalen-1-yl)propanoic acid]

specific surface area ([1]; powder as obtained): 5.00 m^2/g
SMILES: Cc1ccc(-c2nc(CCOc3cccc4c3CCC=C4CCC(=O)O)c(C)o2)cc1 [Adjustment Example 5, 3-(5-{2-[5-methyl-2-(4-methylphenyl)-1,3-oxazol-4-yl]ethoxy}-3,4-dihydronaphthalen-1-yl)propanoic acid]

specific surface area ([1]; powder as obtained): 5.46 m^2/g
Dissolution rate (%) ([5]; 0 minutes): 0.00%
Dissolution rate (%) ([5]; 5 minutes): 32.3%
Dissolution rate (%) ([5]; 10 minutes): 41.7%
Dissolution rate (%) ([5]; 15 minutes): 48.0%
Dissolution rate (%) ([5]; 30 minutes): 58.5%
Dissolution rate (%) ([5]; 45 minutes): 64.3%
Dissolution rate (%) ([5]; 60 minutes): 68.0%
SMILES: Cc1ccc(-c2nc(CCOc3cccc4c3CCC=C4CCC(=O)O)c(C)o2)cc1 [Adjustment Example 6, 3-(5-{2-[5-methyl-2-(4-methylphenyl)-1,3-oxazol-4-yl]ethoxy}-3,4-dihydronaphthalen-1-yl)propanoic acid]

specific surface area ([1]; powder as obtained): 2.4 m^2/g
SMILES: Cc1ccc(-c2nc(CCOc3cccc4c3CCC=C4CCC(=O)O)c(C)o2)cc1 [Compound A, 3-(5-{2-[5-methyl-2-(4-methylphenyl)-1,3-oxazol-4-yl]ethoxy}-3,4-dihydronaphthalen-1-yl)propanoic acid]
